pIC50: −log10 of the molar value.
Key:
HT-29 = test: Cytotoxicity against human HT-29 cells assessed as cell growth inhibition incubated for 6 hrs by SRB assay; assay type: functional, cell-based; conditions: HT-29, 6 h
MCF7 = test: Cytotoxicity against human MCF7 cells assessed as cell growth inhibition incubated for 6 hrs by SRB assay; assay type: functional, cell-based; conditions: MCF7, 6 h
CCRF-CEM = test: Cytotoxicity against human CEM cells assessed as cell growth inhibition incubated for 6 hrs by SRB assay; assay type: functional, cell-based
NCI-H460 = test: Cytotoxicity against human NCI-H460 cells assessed as cell growth inhibition incubated for 6 hrs by SRB assay; assay type: functional, cell-based; conditions: NCI-H460, 6 h
[1] = Cytotoxicity against fibroblasts (unknown origin) assessed as cell growth inhibition incubated for 6 hrs by SRB assay; assay type: toxicity, cell-based, Fibroblast

With `CC1(C)CCC[C@@]2(C)Oc3cc4oc(-c5ccc(O)c(O)c5)cc(=O)c4c(O)c3C[C@@H]12` as the molecule, how does the pIC50 (HT-29) read?
Its pIC50 is 4.43.

And the pIC50 (MCF7)?
Its pIC50 is 4.72.

And the pIC50 (CCRF-CEM)?
The pIC50 was 5.28.

What about the pIC50 (NCI-H460) of the same molecule?
Its pIC50 is 5.15.

And the IC50 at 6 h [1]?
The IC50 at 6 h was 37.1 µM.

With `CC1(C)CCC[C@]2(C)Oc3c(c(O)cc4oc(-c5ccc(O)c(O)c5)cc(=O)c34)C[C@H]12` as the molecule, how does the pIC50 (HT-29) read?
The pIC50 was 4.47.

What about the pIC50 (MCF7) of the same molecule?
Its pIC50 is 4.72.

What about the pIC50 (CCRF-CEM) of the same molecule?
The pIC50 was 5.23.

What about the IC50 at 6 h [1] of the same molecule?
Its IC50 at 6 h is 34.1 µM.

Which results are given for `CC1(C)CCC[C@@]2(C)Oc3c(c(O)cc4oc(-c5ccc(O)c(O)c5)cc(=O)c34)C[C@H]12`?
pIC50 (HT-29): 4.44; pIC50 (MCF7): 4.75; pIC50 (CCRF-CEM): 5.32; IC50 at 6 h [1]: 36 µM

With `CC1(C)CCC[C@@]2(C)Oc3cc(O)c4c(=O)cc(-c5ccc(O)c(O)c5)oc4c3C[C@@H]12` as the molecule, how does the pIC50 (HT-29) read?
The pIC50 was 4.56.

And the pIC50 (MCF7)?
The pIC50 was 4.55.

And the pIC50 (CCRF-CEM)?
The pIC50 was 4.79.

And the pIC50 (NCI-H460)?
Its pIC50 is 4.74.

What about the IC50 at 6 h [1] of the same molecule?
Its IC50 at 6 h is 27.5 µM.

With `CC1(C)CCC[C@]2(C)Oc3cc(O)c4c(=O)cc(-c5ccc(O)c(O)c5)oc4c3C[C@H]12` as the molecule, how does the pIC50 (HT-29) read?
Its pIC50 is 4.48.

What about the pIC50 (MCF7) of the same molecule?
Its pIC50 is 4.59.

What about the pIC50 (CCRF-CEM) of the same molecule?
Its pIC50 is 5.77.

And the pIC50 (NCI-H460)?
Its pIC50 is 4.76.

What about the IC50 at 6 h [1] of the same molecule?
Its IC50 at 6 h is 33.2 µM.

Which results are given for `CC1(C)CCC[C@]2(C)Oc3c(c(O)cc4oc(-c5ccc(O)c(O)c5)cc(=O)c34)C[C@@H]12`?
pIC50 (HT-29): 4.61; pIC50 (MCF7): 5.19; pIC50 (CCRF-CEM): 5.38; IC50 at 6 h [1]: 24.5 µM

With `COc1cccc2c1C(=O)c1c(O)c3c(c(O)c1C2=O)C[C@@](O)(C(=O)CO)C[C@@H]3O[C@H]1C[C@H](N)[C@H](O)[C@H](C)O1` [DOXORUBICIN] as the molecule, how does the pIC50 (HT-29) read?
Its pIC50 is 6.64.

And the pIC50 (MCF7)?
The pIC50 was 6.27.

What about the pIC50 (CCRF-CEM) of the same molecule?
The pIC50 was 6.96.

What about the pIC50 (NCI-H460) of the same molecule?
Its pIC50 is 8.00.

What about the IC50 at 6 h [1] of the same molecule?
Its IC50 at 6 h is 56.3 µM.

With `CC1(C)CCC[C@@]2(C)Oc3c(c(O)cc4oc(-c5ccc(O)c(O)c5)cc(=O)c34)C[C@@H]12` [UGONIN S] as the molecule, how does the pIC50 (HT-29) read?
Its pIC50 is 4.66.

What about the pIC50 (MCF7) of the same molecule?
Its pIC50 is 5.06.

What about the pIC50 (CCRF-CEM) of the same molecule?
Its pIC50 is 5.21.

And the IC50 at 6 h [1]?
The IC50 at 6 h was 21.9 µM.

With `CC1(C)CCC[C@]2(C)Oc3cc4oc(-c5ccc(O)c(O)c5)cc(=O)c4c(O)c3C[C@H]12` as the molecule, how does the pIC50 (HT-29) read?
The pIC50 was 4.66.

What about the pIC50 (MCF7) of the same molecule?
The pIC50 was 4.78.

What about the pIC50 (CCRF-CEM) of the same molecule?
The pIC50 was 5.38.

What about the pIC50 (NCI-H460) of the same molecule?
Its pIC50 is 5.66.

What about the IC50 at 6 h [1] of the same molecule?
Its IC50 at 6 h is 24.5 µM.
